Laboratory results reported in publication PMC3906536, “The cyclic AMP phosphodiesterase RegA critically regulates encystation in social and pathogenic amoebas^” (Cellular Signalling, 2014).

target: T1, Acas RegA (cAMP phosphodiesterase RegA) (Acanthamoeba castellanii, UniProt L7WMY9); assay: inhibition of 3H-cAMP hydrolysis by purified RegA; type: biochemical
T1 construct: 621 aa protein from full cDNA, N-terminal hexahis-tag, expressed in E. coli
T1 sequence (L7WMY9 entry or part of it): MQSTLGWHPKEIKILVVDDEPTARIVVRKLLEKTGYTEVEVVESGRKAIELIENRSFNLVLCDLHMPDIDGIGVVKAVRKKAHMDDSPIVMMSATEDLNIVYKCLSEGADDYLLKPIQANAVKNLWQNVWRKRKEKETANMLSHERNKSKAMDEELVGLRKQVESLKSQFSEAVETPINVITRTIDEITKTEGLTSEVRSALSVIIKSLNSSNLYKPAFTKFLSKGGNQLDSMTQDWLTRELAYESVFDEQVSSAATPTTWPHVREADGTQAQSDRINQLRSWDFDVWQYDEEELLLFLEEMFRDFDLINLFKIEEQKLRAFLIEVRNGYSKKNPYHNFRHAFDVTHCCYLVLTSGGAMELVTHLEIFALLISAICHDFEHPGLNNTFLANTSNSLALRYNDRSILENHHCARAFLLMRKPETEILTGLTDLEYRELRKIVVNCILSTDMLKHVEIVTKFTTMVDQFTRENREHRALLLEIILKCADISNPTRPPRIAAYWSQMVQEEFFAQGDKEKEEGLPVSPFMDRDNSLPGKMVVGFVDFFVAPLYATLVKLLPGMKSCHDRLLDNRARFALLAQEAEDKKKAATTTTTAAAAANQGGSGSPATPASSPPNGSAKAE

Row | IC50 | Structure (SMILES)
1 | 400 µM | Clc1cccc(Nc2nnc(-c3ccccc3)c3ccccc23)c1 [MY-5445]
2 | 12 µM | OCCN(CCO)c1nc(N2CCCCC2)c2nc(N(CCO)CCO)nc(N3CCCCC3)c2n1 [dipyridamole]
3 | 30 µM | COc1cc2c(cc1OC)-c1c/c(=N\c3c(C)cc(C)cc3C)n(C)c(=O)n1CC2 [trequinsin]
